According to patent US10954214B2 (Janssen Pharmaceutica NV, priority 2016, dated 2021):

How the values were obtained:
[1] = test system: IL6 secretion by OCI-LY3 ABC-DLBCL cells; assay: Human IL6 Mesoscale assay (OCI-LY3); type: cell-based; settings: Homo sapiens, 24 h
Method in brief: (§1)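 Read-out: MSD electrochemiluminescence of IL6/IL10 in supernatants. Cells (100,000/well, no beta-mercaptoethanol) were exposed to compounds at 15 μM down to 58.6 nM, 1:2 dilutions, for 24 h at 37° C, 5% CO2. Normalised between DMSO (high) and RN486 (low) controls.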

[2] = molecular target: full-length MALT1 protein (Strep-MALT1(1-824)-His) (Homo sapiens (Human), UniProt Q9UDY8); assay: MALT1 Biochemical Protease Assay (Ac-LRSR-AMC substrate); settings: 10 nM FL MALT1, 200 μM Ac-LRSR-AMC, 4 h at RT; read-out: MALT1_Biochemical activity (Ac-LRSR-amc) IC50
Chain of full-length MALT1 protein (Strep-MALT1(1-824)-His) (Q9UDY8 whole entry): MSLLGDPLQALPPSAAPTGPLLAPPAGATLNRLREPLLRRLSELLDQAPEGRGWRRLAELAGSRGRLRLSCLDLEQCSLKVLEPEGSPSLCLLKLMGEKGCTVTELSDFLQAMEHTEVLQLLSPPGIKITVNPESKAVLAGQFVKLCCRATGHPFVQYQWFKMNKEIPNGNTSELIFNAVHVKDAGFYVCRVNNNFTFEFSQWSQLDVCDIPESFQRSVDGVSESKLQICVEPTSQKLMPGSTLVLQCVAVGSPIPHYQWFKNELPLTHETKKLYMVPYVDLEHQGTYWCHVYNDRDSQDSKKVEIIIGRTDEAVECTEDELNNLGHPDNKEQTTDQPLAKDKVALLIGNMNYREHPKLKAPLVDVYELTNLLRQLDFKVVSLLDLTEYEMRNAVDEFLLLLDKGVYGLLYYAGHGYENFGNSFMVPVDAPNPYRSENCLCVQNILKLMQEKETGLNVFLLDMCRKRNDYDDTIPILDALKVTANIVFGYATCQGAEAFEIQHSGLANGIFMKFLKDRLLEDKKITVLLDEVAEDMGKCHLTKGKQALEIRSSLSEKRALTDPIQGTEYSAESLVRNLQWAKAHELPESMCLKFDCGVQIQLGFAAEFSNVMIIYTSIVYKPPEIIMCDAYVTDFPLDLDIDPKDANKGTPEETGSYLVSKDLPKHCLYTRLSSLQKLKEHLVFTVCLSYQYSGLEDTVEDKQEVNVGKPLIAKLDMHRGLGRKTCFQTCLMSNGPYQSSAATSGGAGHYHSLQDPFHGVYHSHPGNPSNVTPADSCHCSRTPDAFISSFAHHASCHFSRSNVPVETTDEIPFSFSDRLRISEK
Method in brief: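 Fluorescence from AMC release off the quenched LRSR substrate was read after a 4 h reaction at RT. Values were normalised to no-enzyme and uninhibited controls and fitted for IC50 and Hill coefficient.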

[3] = test system: IL10 secretion by OCI-LY3 ABC-DLBCL cells; assay: Human IL10 Mesoscale assay (OCI-LY3); type: cell-based; settings: Homo sapiens, 24 h
Method in brief: as §1

| Compound | IC50 [1] | IC50 [2] | IC50 [3] |
| --- | --- | --- | --- |
| N#Cc1cc(NC(=O)c2cnn(-c3cnc(N)c4ccccc34)c2C(F)(F)F)ccn1 [Cpd 340, 1-(1-aminoisoquinolin-4-yl)-N-(2-cyanopyridin-4-yl)-5-(trifluoromethyl)-1H-pyrazole-4-carboxamide] | 295 nM | 209 nM | 229 nM |
| CCc1cc(NC(=O)c2cnn(-c3cccc4nccn34)c2C(F)(F)F)c(CC)nc1-n1nccn1 [Cpd 196, N-(2,5-diethyl-6-(2H-1,2,3-triazol-2-yl)pyridin-3-yl)-1-(imidazo[1,2-a]pyridin-5-yl)-5-(trifluoromethyl)-1H-pyrazole-4-carboxamide] | 83 nM | 3160 nM | 41 nM |
| Cc1cnn(-c2nc(C)c(NC(=O)c3cnn(-c4cnc(N)c5ccccc45)c3C(F)(F)F)cc2Cl)n1 [Cpd 341, 1-(1-aminoisoquinolin-4-yl)-N-(5-chloro-2-methyl-6-(4-methyl-2H-1,2,3-triazol-2-yl)pyridin-3-yl)-5-(trifluoromethyl)-1H-pyrazole-4-carboxamide] | 479 nM | 25 nM | 389 nM |
| Cc1nc(-n2nccn2)c(Cl)cc1NC(=O)c1cnn(-c2ccc(C)n3nccc23)c1C(F)(F)F [Cpd 318, N-(5-chloro-2-methyl-6-(2H-1,2,3-triazol-2-yl)pyridin-3-yl)-1-(7-methylpyrazolo[1,5-a]pyridin-4-yl)-5-(trifluoromethyl)-1H-pyrazole-4-carboxamide] | 162 nM | 83 nM | 138 nM |
| Cc1nc2cccc(-n3ncc(C(=O)Nc4cnc(-n5nccn5)c(C#N)c4)c3C(F)(F)F)n2n1 [Cpd 254, N-(5-cyano-6-(2H-1,2,3-triazol-2-yl)pyridin-3-yl)-1-(2-methyl-[1,2,4]triazolo[1,5-a]pyridin-5-yl)-5-(trifluoromethyl)-1H-pyrazole-4-carboxamide] | 81 nM | 282 nM | 79 nM |
| Cc1nc(-n2nccn2)c(Cl)cc1NC(=O)c1cnn(-c2cnc(N3CC(O)C3)c3sccc23)c1C(F)(F)F [Cpd 433, N-(5-chloro-2-methyl-6-(2H-1,2,3-triazol-2-yl)pyridin-3-yl)-1-(7-(3-hydroxyazetidin-1-yl)thieno[2,3-c]pyridin-4-yl)-5-(trifluoromethyl)-1H-pyrazole-4-carboxamide] | 589 nM | 170 nM | 427 nM |
| Cc1nc(-n2cccn2)c(Cl)cc1NC(=O)c1cnn(-c2cnc(N)c3ccccc23)c1C(F)(F)F [Cpd 336, 1-(1-aminoisoquinolin-4-yl)-N-(5-chloro-2-methyl-6-(1H-pyrazol-1-yl)pyridin-3-yl)-5-(trifluoromethyl)-1H-pyrazole-4-carboxamide] | 209 nM | 214 nM | 117 nM |
| N#Cc1cc(NC(=O)c2cnn(-c3ncnc4ccccc34)c2C(F)(F)F)cnc1-n1nccn1 [Cpd 296, N-(5-cyano-6-(2H-1,2,3-triazol-2-yl)pyridin-3-yl)-1-(quinazolin-4-yl)-5-(trifluoromethyl)-1H-pyrazole-4-carboxamide] | 182 nM | 72 nM | 69 nM |
| Cn1nc(-c2ncc(NC(=O)c3cnn(-c4cccc5ncccc45)c3C(F)(F)F)cc2C#N)cc1C(=O)O [Cpd 255, 3-(3-cyano-5-(1-(quinolin-5-yl)-5-(trifluoromethyl)-1H-pyrazole-4-carboxamido)pyridin-2-yl)-1-methyl-1H-pyrazole-5-carboxylic acid] | 59 nM | 275 nM | 41 nM |
| N#Cc1cc(NC(=O)c2cnn(-c3ccnc4cn[nH]c34)c2C(F)(F)F)cnc1-n1nccn1 [Cpd 262, N-(5-cyano-6-(2H-1,2,3-triazol-2-yl)pyridin-3-yl)-1-(1H-pyrazolo[4,3-b]pyridin-7-yl)-5-(trifluoromethyl)-1H-pyrazole-4-carboxamide] | 182 nM | 191 nM | 129 nM |
| CNc1ncc(-n2ncc(C(=O)Nc3cnc(-n4nccn4)c(C#N)c3)c2C(F)(F)F)c2cccc(F)c12 [Cpd 325, N-(5-cyano-6-(2H-1,2,3-triazol-2-yl)pyridin-3-yl)-1-(8-fluoro-1-(methylamino)isoquinolin-4-yl)-5-(trifluoromethyl)-1H-pyrazole-4-carboxamide] | 646 nM | 55 nM | 794 nM |
| COC(=O)c1cnn(-c2ccc(NC(=O)c3cnn(-c4cccc5ncccc45)c3C(F)(F)F)cc2Cl)n1 [Cpd 256, methyl 2-(2-chloro-4-(1-(quinolin-5-yl)-5-(trifluoromethyl)-1H-pyrazole-4-carboxamido)phenyl)-2H-1,2,3-triazole-4-carboxylate] | 257 nM | 240 nM | 240 nM |
| CN(C)C(=O)c1ncc(NC(=O)c2cnn(-c3cccc4c(=O)[nH]ccc34)c2C(F)(F)F)cc1Cl [Cpd 351, 3-chloro-N,N-dimethyl-5-(1-(1-oxo-1,2-dihydroisoquinolin-5-yl)-5-(trifluoromethyl)-1H-pyrazole-4-carboxamido)picolinamide] | 78 nM | 68 nM | 46 nM |
| Cc1nc(-n2nccn2)c(Cl)cc1NC(=O)c1cnn(-c2cnc(N)c3ccccc23)c1C(F)(F)F [Cpd 180, 1-(1-aminoisoquinolin-4-yl)-N-(5-chloro-2-methyl-6-(2H-1,2,3-triazol-2-yl)pyridin-3-yl)-5-(trifluoromethyl)-1H-pyrazole-4-carboxamide] | 79 nM | 26 nM | 81 nM |
| COC(=O)c1ncc(NC(=O)c2cnn(-c3cccc4c(=O)[nH]ccc34)c2C(F)(F)F)cc1Cl [Cpd 355, methyl 3-chloro-5-(1-(1-oxo-1,2-dihydroisoquinolin-5-yl)-5-(trifluoromethyl)-1H-pyrazole-4-carboxamido)picolinate] | 912 nM | 10 nM | 407 nM |

The next lines start with the values.

| IC50 [1] | IC50 [2] | IC50 [3] | Compound |
| --- | --- | --- | --- |
| 72 nM | 87 nM | 40 nM | CC(O)c1cc(-n2ncc(C(=O)Nc3cnc(-n4nccn4)c(Cl)c3)c2C(F)(F)F)c2ccccc2n1 (stereo not drawn) [Cpd 374, N-(5-chloro-6-(2H-1,2,3-triazol-2-yl)pyridin-3-yl)-1-(2-(1-hydroxyethyl)quinolin-4-yl)-5-(trifluoromethyl)-1H-pyrazole-4-carboxamide] |
| 525 nM | 4170 nM | 339 nM | Cc1cc(NC(=O)c2cnn(-c3cccc4scnc34)c2C(F)(F)F)c(C)nc1-n1nccn1 [Cpd 300, 1-(benzo[d]thiazol-4-yl)-N-(2,5-dimethyl-6-(2H-1,2,3-triazol-2-yl)pyridin-3-yl)-5-(trifluoromethyl)-1H-pyrazole-4-carboxamide] |
| 126 nM | 145 nM | 87 nM | NCc1cnn(-c2ncc(NC(=O)c3cnn(-c4cccc5ncccc45)c3C(F)(F)F)cc2Cl)n1 [Cpd 272, N-(6-(4-(aminomethyl)-2H-1,2,3-triazol-2-yl)-5-chloropyridin-3-yl)-1-(quinolin-5-yl)-5-(trifluoromethyl)-1H-pyrazole-4-carboxamide] |
| 135 nM | 251 nM | 115 nM | Cc1nc(-n2nccn2)c(C#N)cc1NC(=O)c1cnn(-c2cccc3scnc23)c1C(F)(F)F [Cpd 297, 1-(benzo[d]thiazol-4-yl)-N-(5-cyano-2-methyl-6-(2H-1,2,3-triazol-2-yl)pyridin-3-yl)-5-(trifluoromethyl)-1H-pyrazole-4-carboxamide] |
| 537 nM | 105 nM | 309 nM | Nc1cnn(-c2ncc(NC(=O)c3cnn(-c4cccc5scnc45)c3C(F)(F)F)cc2Cl)n1 [Cpd 299, N-(6-(4-amino-2H-1,2,3-triazol-2-yl)-5-chloropyridin-3-yl)-1-(benzo[d]thiazol-4-yl)-5-(trifluoromethyl)-1H-pyrazole-4-carboxamide] |
| 98 nM | 2290 nM | 95 nM | O=C(Nc1cnc(-n2nccn2)c(Cl)c1)c1cnn(-c2c[n+]([O-])cc3sccc23)c1C(F)(F)F [Cpd 409, 4-(4-((5-chloro-6-(2H-1,2,3-triazol-2-yl)pyridin-3-yl)carbamoyl)-5-(trifluoromethyl)-1H-pyrazol-1-yl)thieno[2,3-c]pyridine 6-oxide] |
| 79 nM | 170 nM | 81 nM | O=C(Nc1cnc(-n2nccn2)c(Cl)c1)c1cnn(-c2cnc(C3CC3)c3sccc23)c1C(F)(F)F [Cpd 435, N-(5-chloro-6-(2H-1,2,3-triazol-2-yl)pyridin-3-yl)-1-(7-cyclopropylthieno[2,3-c]pyridin-4-yl)-5-(trifluoromethyl)-1H-pyrazole-4-carboxamide] |
| 251 nM | 30 nM | 112 nM | CSc1ncc(-n2ncc(C(=O)Nc3cnc(-n4nccn4)c(Cl)c3)c2C(F)(F)F)c2ccccc12 [Cpd 429, N-(5-chloro-6-(2H-1,2,3-triazol-2-yl)pyridin-3-yl)-1-(1-(methylthio)isoquinolin-4-yl)-5-(trifluoromethyl)-1H-pyrazole-4-carboxamide] |
| 288 nM | 214 nM | 174 nM | Cc1ncc(-n2ncc(C(=O)Nc3cnc(-n4nccn4)c(Cl)c3)c2C(F)(F)F)c2ccsc12 [Cpd 434, N-(5-chloro-6-(2H-1,2,3-triazol-2-yl)pyridin-3-yl)-1-(7-methylthieno[2,3-c]pyridin-4-yl)-5-(trifluoromethyl)-1H-pyrazole-4-carboxamide] |
